Test [1] has as its target MurX (Mycobacterium tuberculosis, UniProt P9WMW7). The test can be described thus: biochemical. The test is classed as biochemical, M. tuberculosis.
Test [2] has as its system M. tuberculosis. Description: M. tuberculosis growth inhibition, microdilution broth method. The test is classed as cell-based. Conditions: for M. tuberculosis growth inhibition MIC50: microdilution broth method. A general note: Broth dilution looks for growth in wells or tubes with falling amounts of substance.
Test [3] relates to Staphylococcus aureus. Conditions: Staphylococcus aureus infected mice; cited from earlier work.
Test [4] has as its system Gram-positive and Gram-negative bacteria. The conditions noted are these: both Gram-positive and Gram-negative bacteria; cited from earlier work.
The target in test [5] is WecA (polyprenyl phosphate-GlcNAc-1-phosphate transferase) (Mycobacterium tuberculosis, UniProt P9WMW5). The test is classed as biochemical, M. tuberculosis. The conditions noted are these: for IC50: read-out: WecA inhibition IC50.
For test [6], the system named is MraY. The conditions noted are these: read-out: MraY enzyme inhibitory activity IC50; cited from earlier work.
For test [7], the system named is bacteria. Conditions: cited from earlier work.

The values that follow come from article PMC5053896 (Journal of the American Chemical Society, 2016).

≈ marks a conversion by molar mass, not a printed value. Like-named read-outs stand apart in the source and are kept apart here.

The IC50 is the concentration at which inhibition is half-maximal. Broadly, the MIC50 is the lowest concentration that inhibits either 50% of growth or 50% of the strains tested, depending on the study. Compound `CO[C@H]1[C@@H](O)[C@H](n2ccc(=O)[nH]c2=O)O[C@@H]1[C@@H](O[C@H]1OC(C(=O)N[C@H]2CCCCNC2=O)=C[C@H](O)[C@@H]1O)C(N)=O` [Capuramycin] yielded an IC50 in test [1] of 220 nM. Further, in test [2] (Mycobacterium tuberculosis, read-out: M. tuberculosis growth inhibition MIC50), the MIC50 is 6.25 µg/mL (≈ 11 µM).

For orientation: ED50 means the dose that gives a 50% effect, or the effect in half of the subjects. For `CO[C@H]1[C@H](O[C@H]([C@H]2O[C@@H](n3ccc(=O)[nH]c3=O)[C@H](O)[C@@H]2O)[C@H](NCCCNC(=O)[C@@H](NC(=O)[C@@H](NC(=O)N[C@H](C(=O)O)C(C)C)[C@@H]2CCN=C(N)N2)[C@@H](OC(=O)CCCCCCCCCCCCN(O)C(=N)N)C(C)C)C(=O)O)O[C@H](CN)[C@H]1O` [Muraymycin A1], the ED50 in test [3] was 1.1 mg/kg. In test [4], the bactericidal activity result is given as “bactericidal activity”.

For `CO[C@H]1[C@H](O[C@H]([C@H]2O[C@@H](n3ccc(=O)[nH]c3=O)[C@H](O)[C@@H]2O)[C@H](NCCCNC(=O)[C@H](CC(C)C)NC(=O)[C@@H](NC(=O)N[C@H](C(=O)O)C(C)C)[C@@H]2CCN=C(N)N2)C(=O)O)O[C@H](CN)[C@H]1O` [Muraymycin D1 (1), Muraymycin D1], the IC50 in test [5] stood at 690 nM. In addition, the “M. tuberculosis growth inhibition MIC50” value in test [2] was 1.56 µg/mL; in test [2] (listed as 1) it was 1.56 to 6.25 µg/mL.

Take `COC1C(C(OC2OC(C(=O)NC3CCCCNC3=O)=CC(O)C2O)C(N)=O)OC(n2ccc(=O)[nH]c2=O)C1OC` (stereo not shown) [UT-01320]: the IC50 in test [5] was determined as 60 nM. In test [2], the “M. tuberculosis growth inhibition MIC50” value is 1.56 µg/mL.

Consider `CC(C)C[C@H](NC(=O)[C@@H](NC(=O)N[C@H](C(=O)O)C(C)C)[C@@H]1CCN=C(N)N1)C(=O)NCCCN[C@H](C(=O)O)[C@H](O[C@@H]1O[C@H](CN)[C@@H](O)[C@H]1O)[C@H]1O[C@@H](n2ccc(=O)[nH]c2=O)[C@H](O)[C@@H]1O` [muraymycin D2], for which, in test [6], the IC50 was 10 nM. Moreover, the antibacterial activity entry in test [7] is “no significant antibacterial activity”.

For the compound “Muraymycin D1-amide [Muraymycin D1-amide (2)]”, the “M. tuberculosis growth inhibition MIC50” value was 1.56 µg/mL in test [2] and 1.56 to 6.25 µg/mL in test [2] (listed as 2).

For “Muraymycin D1-diamide [Muraymycin D1-diamide (3)]”, in test [5], the “Inhibition of WecA enzyme relative to 1 and 2” value was ~ 10 times. For the same compound, the “M. tuberculosis growth inhibition MIC50” value in test [2] is 6.25 µg/mL; in test [2] (listed as 3), 1.56 to 6.25 µg/mL.

Regarding Tunicamycin, the IC50 in test [5] came to 150 nM; in test [1] (read-out: MurX inhibition IC50), 3380 nM. In addition, the “M. tuberculosis growth inhibition MIC50” value in test [2] came to 3.13 µg/mL.
